As a reminder, the IC50 is the concentration that inhibits the measured activity by half. Low readings indicate greater potency, high ones weaker potency.

These results are taken from ChEMBL document CHEMBL1131907, “Novel synthetic oleanane triterpenoids: a series of highly active inhibitors of nitric oxide production in mouse macrophages” (Bioorg Med Chem Lett, 1999).

Format in all cases: functional, organism-based
The species named for assay [1] is Mus musculus. As to the kind of experiment: Inhibitory activity against production of nitric oxide induced by interferon-gamma in mouse macrophages.
The species named for assay [2] is Mus musculus. As to the kind of experiment: Inhibitory activity against production of nitric oxide (NO) induced by interferon-gamma (IFN-gamma) in mouse macrophages below 1 uM concentration; Inactive.
The species entered for assay [3] is Mus musculus. The assay can be described thus: Inhibitory activity against production of nitric oxide (NO) induced by interferon-gamma (IFN-gamma) in mouse macrophages above 1 uM concentration; Toxic.

In turn, `C[C@]12CCC(=O)C=C1CCC1[C@@H]2[C@@H](O)C[C@@]2(C)[C@H]1CC[C@]2(O)C(=O)CO` (single isomer, unassigned) [HYDROCORTISONE] showed an IC50 in assay [1] of 10 nM.

`COC(=O)[C@]12CCC(C)(C)C[C@H]1[C@H]1C(=O)C=C3[C@@]4(C)C=C(C#N)C(=O)C(C)(C)[C@@H]4CC[C@@]3(C)[C@]1(C)CC2` [BARDOXOLONE METHYL] yielded an IC50 in assay [1] of 0.1 nM.

For `CC1(C)CC[C@]2(C(=O)O)CC[C@]3(C)C(=CC[C@@H]4[C@@]5(C)C=C(Cl)C(=O)C(C)(C)[C@@H]5CC[C@]43C)C2C1` (some centres undefined), the IC50 in assay [1] is > 40000 nM.

Take `COC(=O)C1=C[C@]2(C)C3=CC(=O)C4C5CC(C)(C)CC[C@]5(C(=O)OC)CC[C@@]4(C)[C@]3(C)CC[C@H]2C(C)(C)C1=O` (some centres undefined): the figures for the IC50 result in assay [2] and in assay [3] were “Not Active” and “Toxic”, respectively.

`COC(=O)[C@]12CCC(C)(C)CC1C1=CC[C@@H]3[C@@]4(C)C=C(C(=O)O)C(=O)C(C)(C)[C@@H]4CC[C@@]3(C)[C@]1(C)CC2` (some centres undefined) yielded an IC50 in assay [1] of 800 nM.

Take `COC(=O)[C@]12CCC(C)(C)CC1C1=CC[C@@H]3[C@@]4(C)C=C(C(N)=O)C(=O)C(C)(C)[C@@H]4CC[C@@]3(C)[C@]1(C)CC2` (some centres undefined): in assay [1], it took 14000 nM to reach half-maximal inhibition (IC50).

With `COC(=O)C1=C[C@]2(C)C3=CC(=O)C4C5CC(C)(C)CC[C@]5(C(=O)O)CC[C@@]4(C)[C@]3(C)CC[C@H]2C(C)(C)C1=O` (some centres undefined), the midpoint of inhibition in assay [1], the IC50, lay at 100 nM. Against the preceding compound, the IC50 is about 140-fold lower.

For the compound `CC1(C)CC[C@]2(C(=O)O)CC[C@]3(C)[C@H](C(=O)C=C4[C@@]5(C)C=CC(=O)C(C)(C)[C@@H]5CC[C@]43C)[C@@H]2C1`, in assay [1], the IC50 was determined as 200 nM.

With `COC(=O)C1=C[C@]2(C)[C@H]3CC=C4C5CC(C)(C)CC[C@]5(C(=O)OC)CC[C@@]4(C)[C@]3(C)CC[C@H]2C(C)(C)C1=O` (some centres undefined), half-maximal inhibition in assay [1] (IC50) was put at 900 nM.

On to `CC1(C)CC[C@]2(C(=O)O)CC[C@]3(C)C(=C2C1)CC(=O)[C@@H]1[C@@]2(C)C=C(C#N)C(=O)C(C)(C)[C@@H]2CC[C@]13C`, for which the midpoint of inhibition in assay [1], the IC50, lay at 70 nM.

`CC1(C)CC[C@]2(C(=O)O)CC[C@]3(C)C(=CC[C@@H]4[C@@]5(C)C=C(C(=O)O)C(=O)C(C)(C)[C@@H]5CC[C@]43C)C2C1` (some centres undefined) had an IC50 in assay [1] of 70 nM.

The compound `COC(=O)C1=C[C@]2(C)[C@H]3CC=C4C5CC(C)(C)CC[C@]5(C(=O)O)CC[C@@]4(C)[C@]3(C)CC[C@H]2C(C)(C)C1=O` (some centres undefined) yielded an IC50 in assay [1] of 2200 nM. This IC50 is about 31-fold higher than that of the compound before.

As to `COC(=O)[C@]12CCC(C)(C)CC1C1=CC[C@@H]3[C@@]4(C)C=C(C=O)C(=O)C(C)(C)[C@@H]4CC[C@@]3(C)[C@]1(C)CC2` (some centres undefined), the IC50 result in assay [2] is recorded as “Not Active”; in assay [3], “Toxic”.

In the case of `COC(=O)[C@]12CCC(C)(C)CC1C1=CC[C@@H]3[C@@]4(C)C=C(Br)C(=O)C(C)(C)[C@@H]4CC[C@@]3(C)[C@]1(C)CC2` (some centres undefined), the IC50 in assay [1] was > 40000 nM.

Regarding `COC(=O)[C@]12CCC(C)(C)CC1C1C(=O)C=C3[C@@]4(C)C=C(C(=O)O)C(=O)C(C)(C)[C@@H]4CC[C@@]3(C)[C@]1(C)CC2` (some centres undefined), in assay [1], the IC50 stood at 0.8 nM.

In turn, `CC1(C)CC[C@]2(C(=O)O)CC[C@]3(C)[C@H](C(=O)C=C4[C@@]5(C)C=C(C#N)C(=O)C(C)(C)[C@@H]5CC[C@]43C)[C@@H]2C1` [BARDOXOLONE] displayed an IC50 in assay [1] of 0.2 nM. This IC50 lies about 4-fold lower than the previous one.

Consider `CC1(C)CC[C@]2(C(=O)O)CC[C@]3(C)C(C(=O)C=C4[C@@]5(C)C=C(C(=O)O)C(=O)C(C)(C)[C@@H]5CC[C@]43C)C2C1` (some centres undefined), for which it took 200 nM to reach half-maximal inhibition in assay [1] (IC50).

The compound `COC(=O)[C@]12CCC(C)(C)CC1C1=CC[C@@H]3[C@@]4(C)C=C(C#N)C(=O)C(C)(C)[C@@H]4CC[C@@]3(C)[C@]1(C)CC2` (some centres undefined) yielded an IC50 in assay [1] of 700 nM.

As to `CC1(C)CC[C@]2(C(=O)O)CC[C@]3(C)C(=CC[C@@H]4[C@@]5(C)C=C(Br)C(=O)C(C)(C)[C@@H]5CC[C@]43C)C2C1` (some centres undefined), in assay [1], the midpoint of inhibition, the IC50, lay at 7300 nM. Compared with the last compound, the IC50 is about 10-fold higher.

Take `CC1(C)CC[C@]2(C(=O)O)CC[C@]3(C)C(=CC[C@@H]4[C@@]5(C)C=CC(=O)C(C)(C)[C@@H]5CC[C@]43C)C2C1` (some centres undefined): half-maximal inhibition in assay [1] (IC50) required 5600 nM.

On to `C[C@@H]1C[C@H]2[C@@H]3CCC4=CC(=O)C=C[C@]4(C)[C@@]3(F)[C@@H](O)C[C@]2(C)[C@@]1(O)C(=O)CO` [DEXAMETHASONE], for which the IC50 in assay [1] came out at 0.1 nM.

For the compound `CC1(C)CC[C@]2(C(=O)O)CC[C@]3(C)C(=CC[C@@H]4[C@@]5(C)CC[C@H](O)C(C)(C)[C@@H]5CC[C@]43C)[C@@H]2C1` [OLEANOLIC_ACID], the IC50 in assay [1] was > 40000 nM.

With `COC(=O)[C@]12CCC(C)(C)CC1C1=CC[C@@H]3[C@@]4(C)C=C(Cl)C(=O)C(C)(C)[C@@H]4CC[C@@]3(C)[C@]1(C)CC2` (some centres undefined), in assay [1], the IC50 is > 40000 nM.

Turning to `COC(=O)[C@]12CCC(C)(C)CC1C1=CC(=O)[C@@H]3[C@@]4(C)C=C(C#N)C(=O)C(C)(C)[C@@H]4CC[C@@]3(C)[C@]1(C)CC2` (some centres undefined), the IC50 in assay [1] stood at 20 nM.

In assay [1], `CC1(C)CC[C@]2(C(=O)O)CC[C@]3(C)C(=CC(=O)[C@@H]4[C@@]5(C)C=C(C#N)C(=O)C(C)(C)[C@@H]5CC[C@]43C)C2C1` (some centres undefined) yielded an IC50 of 40 nM.

Turning to `CC1(C)CC[C@]2(C(=O)O)CC[C@]3(C)C(=CC[C@@H]4[C@@]5(C)C=C(C=O)C(=O)C(C)(C)[C@@H]5CC[C@]43C)C2C1` (some centres undefined), the figures for the IC50 entry in assay [2] and in assay [3] were “Not Active” and “Toxic”, respectively.
